Results reported in US8685666B2, “ARL-1 specific antibodies and uses thereof” (The Board of Trustees of Southern Illinois University, priority 2007, dated 2014).
“Also recorded” adds a separate entry of the source.

Columns and labels:
[1] = system: AKR1B10 (ARL-1) secretion; assay: ARL-1 secretion into culture medium (sandwich ELISA and Western blot); type: cell-based, human
Procedure: Soluble proteins are secreted by either the classical or nonclassical pathway (Nickel et al., Eur J. Biochem. 270: 2109-2119, 2003). In the classical protein secretion pathway, a secretory protein is translocated by an N-terminal signal peptide into endoplasmic reticulum and Golgi complex concomitant with protein synthesis. Thus, this pathway is affected by inhibitors of protein synthesis and protein transport from ER to Golgi. […] HCT-8 cells (1.25×10^5) were cultured in 12-well plates overnight and the next day the cells were exposed to 15 μg/ml of protein synthesis inhibitor cycloheximide in fresh serum-free medium. Medium was collected at different time points for sandwich ELISA and Western blot analysis. […] Next, the effects of an ER-Golgi pathway inhibitor were examined. HCT-8 and NCI-460 cells (1.25×10^5) were cultured in 12-well plates overnight and then exposed to an ER-Golgi protein transport inhibitor brefeldin A at 0, 2, or 10 μg/ml in fresh serum-free medium for 6 hour. Medium was collected for sandwich ELISA and Western blot analysis. […] Statistic analysis was performed using Student's t test or Chi square tests, as appropriate, with INSTAT statistical analysis package (Graph Pad Software, CA), for statistical significance at p<0.05.
At 30 min before harvest, ATP (1 mM) was added and the medium was subjected to sandwich ELISA and Western blot analysis. In addition, HCT-8 cells (1.25×10^5) were seeded into 12-well plates and exposed to Ca^2+ ions (100 μM) or ionomycin at 1 or 2 μM in serum-free medium for 30 min and the medium was harvested for sandwich ELISA and Western blot analysis. […]
Proteins that are secreted via the lysosome-mediated pathway are often translocated into lysosomes by the ABC transporters (Hamon et al., Blood 90: 2911-2915, 1997). To understand the transmembrane mechanism of ARL-1, HCT-8 cells (1.25×10^5) were cultured in 12-well plates overnight and then exposed to ABC transporter inhibitor GLIB (glibenclamide) or DIDS (4,4′-diisothiocyanatostilbene-2,2′-disulfonic acid) (Sigma, Mo.) in serum-free medium for 2 hours. ATP (1 mM) was added 30 min before harvest. Medium and cells were collected for sandwich ELISA and Western blot analysis.

HCT-8 cells = assay: Mechanism of acrolein-induced cell death in HCT-8 cells with ARL-1 knockdown (flow cytometry, LDH efflux); type: cell-based, human; settings: 25 μM
Procedure: The mechanisms of cell death induced by reactive carbonyls were investigated by flow cytometry and lactate dehydrogenase leakage assay. For flow cytometry assay, cells (with ARL-1 knockdown) were incubated with acrolein (25 μM) for 24 hours. After medium was gently removed, cells were washed with cold PBS and trypsinized. Cells in PBS and trypsin digestion were pooled, washed with PBS twice at 1200 rpm for 10 min, and then subjected to immediate propidium iodide (PI) and annexin V-FITC staining for 10 minutes in the dark as set forth in Yuan et al. (2004, Oncogene 23: 5843-5852, 2004). FACScan analysis was performed using a FACScan cytometer (Becton Dickinson, Calif.).
For lactate dehydrogenase (LDH) efflux assays, cells were plated at 5×10^4 cells/well in 12-well plates and exposed to 25 μM of acrolein for 12 hours. Medium was collected and cells were lysed for 10 min in 0.5% (v/v) Triton X-100 in 0.1 M potassium phosphate buffer (pH 7.4). Supernatants were collected by centrifugation at 10,000×g for 5 min. LDH activity in medium and cell lysates was measured using LDH assay kit (Roche, Ind.). […] Absorbance at 490 nm was read in a microplate reader (Bio-Rad, CA), with 650 nm as a reference wavelength. LDH release was calculated as: LDH release (%)=[LDH in medium/(LDH in medium+LDH in cell lysate)]×100 (Koh and Choi, 1987, J Neurosci Methods 20: 83-90).

[2] = HCT-8 cells, serum-free medium, ATP 1 mM 30 min before harvest, Mg2+ 2 mM and/or EDTA 1 mM for 2 hours
[3] = HCT-8 cells, serum-free medium 2 hours, ATP 1 mM added 30 min before harvest
[4] = HCT-8 cells, serum-free medium 30 min, Ca2+ ions 100 μM, ionomycin 1 or 2 μM

With [Mg+2] [Mg^2+] the ARL-1 secretion [1, 2] was “blocked”.
Cl.N [NH4Cl] was tested, and the ARL-1 secretion ([1]; 50 mM added simultaneously with the fresh serum-free medium) was “increased” and the “ARL-1 in freshly fed serum-free medium compared with control” value ([1]; 50 mM for 2 hours before switch to fresh serum-free medium) was “significant decrease”.
In the case of O=S(=O)(O)c1cc(N=C=S)ccc1C=Cc1ccc(N=C=S)cc1S(=O)(=O)O [DIDS, 4,4′-diisothiocyanatostilbene-2,2′-disulfonic acid], the ARL-1 secretion [1, 3] is reported as “suppressed”.
In the case of C[C@@H]1C[C@@H]([C@H](O)CC2CC(=O)NC(=O)C2)C(=O)[C@@H](C)C1 [cycloheximide], the ARL-1 secretion ([1]; HCT-8 cells, 15 μg/ml, serum-free medium, up to 8 hours) is reported as “not affected; also recorded: did not significantly affect secretion”.
For [Ca+2] [Ca^2+ ions], the ARL-1 secretion [1, 4] was “significantly stimulated”.
With COc1ccc(Cl)cc1C(=O)NCCc1ccc(S(=O)(=O)NC(=O)NC2CCCCC2)cc1 [GLIB, glibenclamide] the ARL-1 secretion [1, 3] was “suppressed”.
For C[C@H](CCC(=O)O)C[C@H](C)C[C@H](C)C(=O)/C=C(\O)[C@H](C)C[C@H](C)C/C=C/[C@@H](C)[C@@H](O)[C@@H](C)[C@@H](O)C[C@@H]1CC[C@@](C)([C@H]2CC[C@@](C)([C@@H](C)O)O2)O1 [ionomycin], the ARL-1 secretion [1, 4] was “significantly stimulated”.
With C[C@H]1CCC/C=C/[C@@H]2C[C@H](O)C[C@H]2[C@H](O)/C=C/C(=O)O1 [brefeldin A] the ARL-1 secretion ([1]; HCT-8 and NCI-460 cells, 0, 2, or 10 μg/ml, serum-free medium, 6 hour) was “not affected; also recorded: did not significantly affect secretion”.
In the case of Nc1ncnc2c1ncn2[C@@H]1O[C@H](COP(=O)(O)OP(=O)(O)OP(=O)(O)O)[C@@H](O)[C@H]1O [ATP], the ARL-1 secretion [1, 4] is reported as “synergistic role in Ca^2+-mediated stimulation” and the ARL-1 secretion [1, 2] is reported as “significantly stimulated”.
For C=CC=O [acrolein], the “features of induced cell death” value (HCT-8 cells) was “LDH efflux and annexin V staining, a characteristic of oncosis”.
